Each molecule was assayed against T1, APOL1 (Homo sapiens, UniProt O14791) (assay: MultiTox-Fluor Multiplex Cytotoxicity Assay in tet-inducible APOL1 T-REx-HEK293 cells (cell rescue, ratio of dead to live cells)). Conditions: tet-inducible transgenic APOL1 T-REx-HEK293 cell lines, 50 ng/mL tet, 24 hours; read-out: IP50 (i.e., IC50 for cell proliferation).
T1 sequence (O14791 1-398 S342G/I384M): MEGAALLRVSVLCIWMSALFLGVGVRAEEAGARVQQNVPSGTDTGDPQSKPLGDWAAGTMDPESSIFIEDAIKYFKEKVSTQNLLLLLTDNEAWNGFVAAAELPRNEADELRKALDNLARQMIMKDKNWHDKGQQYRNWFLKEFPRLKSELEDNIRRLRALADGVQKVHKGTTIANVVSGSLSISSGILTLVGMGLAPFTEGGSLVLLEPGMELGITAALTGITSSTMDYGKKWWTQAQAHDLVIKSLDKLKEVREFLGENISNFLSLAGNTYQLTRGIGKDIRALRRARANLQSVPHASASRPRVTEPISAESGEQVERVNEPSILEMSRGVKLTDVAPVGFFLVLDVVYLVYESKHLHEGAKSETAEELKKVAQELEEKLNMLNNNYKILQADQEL
Type: cell-based
Outline: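 T-REx-HEK293 cells with tet-inducible APOL1 were treated with compound (10 μM top, 10-point 3-fold dilution, duplicate) plus 50 ng/mL tetracycline for 24 h at 37° C, in DMEM with 2% tet-free FBS. MultiTox-Fluor protease signals gave a dead/live ratio, normalized to no tet (100% viability) and tet alone (0%).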

| SMILES | IC50 |
| --- | --- |
| C[C@H]1C[C@@]2(CCN1Cc1cncc(F)c1)OC[C@H](O)c1cc(Cl)sc12 [Compound 784] | 100 to 500 nM |
| CCc1cc2c(s1)CCO[C@@]21CCN(C[C@H]2C[C@H](N)C2)[C@@H](C)C1 [Compound 419, 3-[[(2′S,4R)-2-ethyl-2′-methyl-spiro[6,7-dihydrothieno[3,2-c]pyran-4,4′-piperidine]-1′-yl]methyl]cyclobutanamine] | 500 to 1000 nM |
| CCc1cc2c(s1)CCO[C@@]21CCN(C2CCCC2O)[C@@H](C)C1 (stereo partly drawn) [Compound 245] | 100 to 500 nM |
| Cc1cncc(CN2CC[C@]3(C[C@@H]2C)OCCc2cc(Cl)sc23)c1 [Compound 649] | 100 to 500 nM |
| CCc1cc2c(s1)CCO[C@@]21CCN(Cc2cn(C3CN(S(=O)(=O)CCO)C3)nn2)[C@@H](C)C1 [Compound 1, 2-[3-[4-[[(2′S,4R)-2-ethyl-2′-methyl-spiro[6,7-dihydrothieno[3,2-c]pyran-4,4′-piperidine]-1′-yl]methyl]triazol-1-yl]azetidin-1-yl]sulfonylethanol] | < 100 nM |
| CCc1cc2c(s1)CCOC21CCN(Cc2cn(CC(O)CF)nn2)C(C)C1 (stereo not drawn) [Compound 88] | < 100 nM |
| C[C@H]1C[C@@]2(CCN1Cc1cn3c(n1)CCC3)OC[C@H](O)c1cc(Cl)sc12 [Compound 786] | 500 to 1000 nM |
| CCc1cc2c(s1)CCO[C@@]21CCN(CC(O)C(F)(F)F)[C@@H](C)C1 (stereo partly drawn) [Compound 241] | 100 to 500 nM |
| C[C@H]1C[C@@]2(CCN1Cc1cn(-c3ncccn3)cn1)OCCc1cc(Cl)sc12 [Compound 650] | 100 to 500 nM |
| CCc1cc2c(s1)CCO[C@@]21CCN(Cc2cn(C3CC4(C3)CS(=O)(=O)C4)nn2)[C@@H](C)C1 [Compound 25] | < 100 nM |
| C[C@H]1C[C@@]2(CCN1Cc1cn(CCS(C)(=O)=O)nn1)OCCc1c2sc(C(F)(F)F)c1Cl [Compound 1010, (2′S, 7R)-3-chloro-2′-methyl-1′-[[1-(2-methylsulfonylethyl)triazol-4-yl]methyl]-2-(trifluoromethyl)spiro[4,5-dihydrothieno[2,3-c]pyran-7,4′-piperidine]] | < 100 nM |
| COc1cc(CN2CC[C@]3(C[C@@H]2C)OC[C@H](O)c2cc(Cl)sc23)ccc1OCC(N)=O [Compound 776] | < 100 nM |
| CCc1cc2c(s1)CCOC21CCN(Cc2cn(CC(O)COC)nn2)C(C)C1 (stereo not drawn) [Compound 138] | < 100 nM |
| CCc1cc2c(s1)CCO[C@@]21CCN(CC2CN(C(=O)CCS(N)(=O)=O)C2)[C@@H](C)C1 [Compound 453] | 100 to 500 nM |
| CCn1cc(CN2CC[C@]3(C[C@@H]2C)OCCc2c3sc(Cl)c2CO)cn1 [Compound 760] | 100 to 500 nM |
| Cc1cc2c(s1)CCO[C@@]21CCN(CC(O)C(N)=O)[C@@H](C)C1 (stereo partly drawn) [Compound 501] | 100 to 500 nM |
| C[C@H]1C[C@@]2(CCN1Cc1ccc(N3CCCC3=O)cc1)OCCc1cc(Cl)sc12 [Compound 647] | < 100 nM |
| CCc1cc2c(s1)CCO[C@@]21CCN(C[C@H]2C[C@@H](NC(C)=O)C2)[C@@H](C)C1 [Compound 384] | 100 to 500 nM |
| C[C@H]1C[C@@]2(CCN1Cc1cnn(CC3(O)CCS(=O)(=O)CC3)c1)OC[C@@H](O)c1cc(C(F)(F)F)sc12 [Compound 974] | < 100 nM |

| SMILES | IC50 |
| --- | --- |
| COCCn1cc(CN2CC[C@]3(C[C@@H]2C)OCCc2cc(Cl)sc23)cn1 [Compound 699, (2S,7R)-2′-chloro-1-((1-(2-methoxyethyl)-1H-pyrazol-4-yl)methyl)-2-methyl-4′,5′-dihydrospiro[piperidine-4,7′-thieno[2,3-c]pyran]] | < 100 nM |
| C[C@H]1C[C@@]2(CCN1Cc1ncco1)OCCc1cc(CC(F)F)sc12 [Compound 580] | 100 to 500 nM |
| CCc1cc2c(s1)CCOC21CCN(Cc2cn(CC(O)CC)nn2)CC1 (stereo not drawn) [Compound 1084] | 500 to 1000 nM |
| C[C@H]1C[C@@]2(CCN1CC(O)C(N)=O)OCCc1cc(CC(F)F)sc12 (stereo partly drawn) [Compound 596] | < 100 nM |
| CCc1cc2c(s1)CCOC21CCN(Cc2cn(CC(O)CO)nn2)C(C)C1 (stereo not drawn) [Compound 143] | < 100 nM |
| CCc1cc2c(s1)CCO[C@@]21CCN(C[C@H]2C[C@@H](NC(=O)CC3CCC(F)(F)CC3)C2)[C@@H](C)C1 [Compound 314] | < 100 nM |
| C[C@@H](CO)Cn1cc(CN2CC[C@]3(C[C@@H]2C)OCCc2c3sc(C(F)(F)F)c2CO)cn1 [Compound 908] | < 100 nM |
| CCc1cc2c(s1)CCOC21CCN(Cc2cn(CC(O)c3cccnc3)nn2)CC1 (stereo not drawn) [Compound 1103] | 500 to 1000 nM |
| CCc1cc2c(s1)CCO[C@@]21CCN(Cc2cn(CC3(CO)CC3)nn2)[C@@H](C)C1 [Compound 150] | 100 to 500 nM |
| C[C@H]1C[C@@]2(CCN1Cc1cccc(OCC(N)=O)c1)OCCc1cc(Cl)sc12 [Compound 656] | 100 to 500 nM |
| CCc1cc2c(s1)CCOC21CCN(Cc2cnc(N3CCCCC3)s2)CC1 [Compound 1137] | 100 to 500 nM |
| CCc1cc2c(s1)CCO[C@@]21CCN(C[C@H]2C[C@@H](NC(=O)C(O)CO)C2)[C@@H](C)C1 (stereo partly drawn) [Compound 365] | 100 to 500 nM |
| CCc1cc2c(s1)CCO[C@@]21CCN(Cc2cnc(NCC(O)C(F)(F)F)nc2)[C@@H](C)C1 (stereo partly drawn) [Compound 231] | 100 to 500 nM |
| C[C@H]1C[C@@]2(CCN1Cc1ccc(F)cc1)OCCc1cc(Cl)sc12 [Compound 672] | 100 to 500 nM |
| CC(O)c1c(C(F)(F)F)sc2c1CCO[C@@]21CCN(Cc2cnn(CCS(C)(=O)=O)c2)[C@@H](C)C1 (stereo partly drawn) [Compound 878] | < 100 nM |
| CCc1cc2c(s1)CCOC21CCN(Cc2ccc(NS(C)(=O)=O)cc2)CC1 [Compound 1129] | 100 to 500 nM |
| CCNC(=O)CCn1cc(CN2CC[C@]3(C[C@@H]2C)OCCc2c3sc(C(F)(F)F)c2CO)cn1 [Compound 900] | < 100 nM |
| C[C@H]1C[C@@]2(CCN1CC1CCOCC1)OC[C@H](O)c1cc(Cl)sc12 [Compound 789] | 500 to 1000 nM |
| C[C@H]1C[C@@]2(CCN1Cc1cnn(Cc3nnc[nH]3)c1)OCCc1c2sc(C(F)(F)F)c1CO [Compound 920] | 100 to 500 nM |

| SMILES | IC50 |
| --- | --- |
| C[C@H]1C[C@@]2(CCN1Cc1cnn(CC(O)C3(O)CCOCC3)c1)OCCc1c2sc(C(F)(F)F)c1CO (stereo partly drawn) [Compound 930, 4-[1-hydroxy-2-[4-[[(2′S, 7R)-3-(hydroxymethyl)-2′-methyl-2-(trifluoromethyl)spiro[4,5-dihydro-thieno[2,3-c]pyran-7,4′-piperidine]-1′-yl]methyl]pyrazol-1-yl]ethyl]tetrahydropyran-4-ol] | < 100 nM |
| CCc1cc2c(s1)CCO[C@@]21CCN(Cc2cn(CC3(O)CCOCC3)nn2)[C@@H](C)C1 [Compound 190] | < 100 nM |
| C[C@H]1C[C@@]2(CCN1C1COC1)OCCc1cc(CC(F)F)sc12 [Compound 575] | 500 to 1000 nM |
| C[C@H]1C[C@@]2(CCN1Cc1cnn(CC(O)CC3(O)COC3)c1)OC[C@@H](O)c1cc(C(F)(F)F)sc12 (stereo partly drawn) [Compound 975] | < 100 nM |
| CCc1cc2c(s1)CCOC21CCN(Cc2cn(C3CCC3(F)F)nn2)CC1 (stereo not drawn) [Compound 1123] | 500 to 1000 nM |
| CCc1cc2c(s1)CCO[C@@]21CCN(C[C@H]2C[C@@H](NC(=O)c3ccn(CC(C)C)n3)C2)[C@@H](C)C1 [Compound 317] | 100 to 500 nM |
| CCc1cc2c(s1)CCO[C@@]21CCN(Cc2cn(Cc3ccncn3)nn2)[C@@H](C)C1 [Compound 55] | 100 to 500 nM |
| C[C@H]1C[C@@]2(CCN1Cc1cnn(CCS(C)(=O)=O)c1)OCCc1cc(C(F)(F)C(F)F)sc12 [Compound 1011, (2′S, 7R)-2′-methyl-1′-[[1-(2-methylsulfonylethyl)pyrazol-4-yl]methyl]-2-(1,1,2,2-tetrafluoroethyl)spiro[4,5-dihydrothieno[2,3-c]pyran-7,4′-piperidine]] | < 100 nM |
| CCc1cc2c(s1)CCO[C@@]21CCN(Cc2cn(CC3CCCS3(=O)=O)nn2)[C@@H](C)C1 (stereo partly drawn) [Compound 161] | < 100 nM |
| C[C@H]1C[C@@]2(CCN1C[C@H]1C[C@@H](NC(=O)C3CCC3)C1)OCCc1cc(CC(F)F)sc12 [Compound 557] | < 100 nM |
| C[C@H]1C[C@@]2(CCN1Cc1cnn(CC(O)CC3(O)CCC3)c1)OCCc1c2sc(C(F)(F)F)c1CO (stereo partly drawn) [Compound 961] | < 100 nM |
| C[C@H]1C[C@@]2(CCN1C[C@H]1C[C@@H](NC(=O)C3CC(F)(F)C3)C1)OCCc1cc(CC(F)F)sc12 [Compound 550] | < 100 nM |
| C[C@H]1C[C@@]2(CCN1Cc1cnn(CC(O)CC3(C#N)CC3)c1)OCCc1c2sc(C(F)(F)F)c1CO (stereo partly drawn) [Compound 950] | < 100 nM |
| CCc1cc2c(s1)CCOC21CCN(Cc2ccc(C(=O)NC(CO)CO)nc2)CC1 [Compound 1057] | 100 to 500 nM |
| CNC(=O)[C@@H](O)CN1CC[C@]2(C[C@@H]1C)OCCc1cc(C(F)(F)F)sc12 [Compound 869, (2S)-2-hydroxy-N-methyl-3-[(2′S, 7R)-2′-methyl-2-(trifluoromethyl)spiro[4,5-dihydrothieno[2,3-c]pyran-7,4′-piperidine]-1′-yl]propanamide] | 500 to 1000 nM |
| CCc1cc2c(s1)CCOC21CCN(Cc2ccncc2)CC1 [Compound 1153] | 500 to 1000 nM |
| CCc1cc2c(s1)CCOC21CCN(Cc2cn(CCC(N)=O)nn2)CC1 [Compound 1114] | 500 to 1000 nM |
| C[C@H]1C[C@@]2(CCN1C1CC(O)C1)OCCc1cc(CC(F)F)sc12 (stereo partly drawn) [Compound 591] | 500 to 1000 nM |
| CS(=O)(=O)CCn1cc(CN2CCC3(CC2C2CC2)OCCc2cc(Cl)sc23)cn1 (stereo not drawn) [Compound 1040, 2-chloro-2′-cyclopropyl-1′-[[1-(2-methylsulfonylethyl)pyrazol-4-yl]methyl]spiro[4,5-dihydrothieno[2,3-c]pyran-7,4′-piperidine]] | < 100 nM |

Reference: patent publication US20250171459A1, “2-METHYL-4',5'-DIHYDROSPIRO[PIPERIDINE-4,7'-THIENO[2,3-C]PYRAN] DERIVATIVES AS INHIBITORS OF APOL1 AND METHODS OF USING SAME” (Vertex Pharmaceuticals Incorporated, priority 2022, published 2025)
